Laboratory results taken from US8759033B2, “CSNR-deficient actinobacteria for the production of an enzyme having chitosanase activity” (Socpra Sciences et Genie S.E.C., priority 2012, dated 2014).

How the values were obtained:
CsnR [1] = target: T1, CsnR (Streptomyces lividans, UniProt A0ABN4DYL3); test: EMSA sugar binding assay: interference with CsnR binding to csnA-WT operator; conditions: for effect on CsnR binding to operator (summary statement): equilibrium competition experiment and IC50 determination; for effect on gel shift pattern of CsnR with csnA-WT operator: saccharide at 500 nM, FIG. 9; for interference with CsnR binding to the csnA-WT probe: maximal tested concentration of 75 mM
Experimental: For the electrophoretic mobility shift assay (EMSA), pairs of complementary oligonucleotides were annealed, generating double-stranded oligonucleotides csnA-WT (wild type), csnA-M1, csnA-M2, csnA-MM, and csnR-WT (see Table 3). Fifty picomoles of double-stranded oligonucleotide was end labeled with ^[γ-32P]ATP (3,000 Ci/mmol) and 20 U of T4 polynucleotide kinase and purified on a G-25 column. DNA binding reaction mixtures (24 μl) contained 10 mM HEPES (pH 7.9), 10% glycerol, 0.2 mM EDTA, 0.5 mM phenylmethylsulfonyl fluoride (PMSF), 0.25 mM DTT, 1 μg poly(dI-dC), and 150 mM KCl. For equilibrium dissociation constant (KD) determination, various concentrations of labeled csnA-WT or csnR-WT probe (0.1 nM to 1.5 nM) and ˜8.5 pmol of purified CsnR were used. For the determination of the 50% inhibitory concentration (IC50) of the DNA competitors, 0.03 nM labeled csnA-WT probe and ˜8.5 pmol of CsnR were used with various concentrations of competitor double-stranded oligonucleotide (0.1 to 125 nM). For the sugar binding assay, ˜8.5 pmol of CsnR was preincubated with glucose, GlcNAc, galactosamine, GlcN, or chitosan oligosaccharides (GlcN)2 to ([…]) in the binding reaction mixture for 15 min on ice before the addition of labeled csnA-WT probe (0.03 nM). Reaction mixtures were incubated at room temperature for 15 min with the labeled probe and then subjected to electrophoresis at 4° C. in a prerun gel (15 min) of 6% polyacrylamide (10 mM Tris, 80 mM glycine, 0.4 mM EDTA [pH 8.3]). Following electrophoresis, gels were dried, and band intensities were visualized with a Phosphorlmager™ and estimated with ImageQuant™ software (version 5.2). All determinations were done in triplicate. KD calculations were done with the Michaelis-Menten nonlinear fit (least squares), and the one-site log IC50 nonlinear fit (least squares) was used for IC50 calculations (GraphPad Prism™ version 5.03 for Windows; GraphPad, San Diego, Calif.).

CsnR [2] = target: T1, CsnR; test: EMSA equilibrium competition with DNA competitors against labeled csnA-WT probe; conditions: competitor double-stranded oligonucleotide 0.1 to 125 nM, 0.03 nM labeled csnA-WT probe, ~8.5 pmol CsnR, three independent experiments; read-out: IC50 (nM), effect of mutations in the operator sequence on CsnR binding
Experimental: For the electrophoretic mobility shift assay (EMSA), pairs of complementary oligonucleotides were annealed, generating double-stranded oligonucleotides csnA-WT (wild type), csnA-M1, csnA-M2, csnA-MM, and csnR-WT (see Table 3). Fifty picomoles of double-stranded oligonucleotide was end labeled with ^[γ-32P]ATP (3,000 Ci/mmol) and 20 U of T4 polynucleotide kinase and purified on a G-25 column. DNA binding reaction mixtures (24 μl) contained 10 mM HEPES (pH 7.9), 10% glycerol, 0.2 mM EDTA, 0.5 mM phenylmethylsulfonyl fluoride (PMSF), 0.25 mM DTT, 1 μg poly(dI-dC), and 150 mM KCl. For equilibrium dissociation constant (KD) determination, various concentrations of labeled csnA-WT or csnR-WT probe (0.1 nM to 1.5 nM) and ˜8.5 pmol of purified CsnR were used. For the determination of the 50% inhibitory concentration (IC50) of the DNA competitors, 0.03 nM labeled csnA-WT probe and ˜8.5 pmol of CsnR were used with various concentrations of competitor double-stranded oligonucleotide (0.1 to 125 nM). For the sugar binding assay, ˜8.5 pmol of CsnR was preincubated with glucose, GlcNAc, galactosamine, GlcN, or chitosan oligosaccharides (GlcN)2 to (GlcN)5 at various concentrations (0.00075 to 75 mM) in the binding reaction mixture for 15 min on ice before the addition of labeled csnA-WT probe (0.03 nM). Reaction mixtures were incubated at room temperature for 15 min with the labeled probe and then subjected to electrophoresis at 4° C. in a prerun gel (15 min) of 6% polyacrylamide (10 mM Tris, 80 mM glycine, 0.4 mM EDTA [pH 8.3]). Following electrophoresis, gels were dried, and band intensities were visualized with a Phosphorlmager™ and estimated with ImageQuant™ software (version 5.2). All determinations were done in triplicate. KD calculations were done with the Michaelis-Menten nonlinear fit (least squares), and the one-site log IC50 nonlinear fit (least squares) was used for IC50 calculations (GraphPad Prism™ version 5.03 for Windows; GraphPad, San Diego, Calif.).

T1 sequence (A0ABN4DYL3 entry or part of it): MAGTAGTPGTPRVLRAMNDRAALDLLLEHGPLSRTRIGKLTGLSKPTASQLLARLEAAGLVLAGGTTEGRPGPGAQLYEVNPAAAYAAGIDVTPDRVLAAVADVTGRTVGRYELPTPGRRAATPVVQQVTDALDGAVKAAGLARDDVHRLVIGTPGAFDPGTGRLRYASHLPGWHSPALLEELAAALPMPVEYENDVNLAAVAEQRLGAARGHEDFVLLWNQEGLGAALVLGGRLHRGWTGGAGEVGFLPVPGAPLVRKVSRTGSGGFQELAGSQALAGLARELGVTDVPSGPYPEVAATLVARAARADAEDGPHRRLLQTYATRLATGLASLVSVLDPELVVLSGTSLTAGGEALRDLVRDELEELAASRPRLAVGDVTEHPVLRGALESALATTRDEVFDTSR

| Compound | effect on CsnR binding to operator (summary statement) (CsnR [1]) | effect on gel shift pattern of CsnR with csnA-WT operator (CsnR [1]) | interference with CsnR binding to the csnA-WT probe (CsnR [1]) | effect on CsnR binding to operator (summary statement) (CsnR [1]; listed as (GlcN)2) | IC50 (CsnR [2]) |
| --- | --- | --- | --- | --- | --- |
| N[C@H]1C(O)O[C@H](CO)[C@@H](O)[C@@H]1O (stereo partly drawn) [GlcN, D-glucosamine] | impaired | strongly affected | – | – | – |
| CC(=O)N[C@H]1C(O)O[C@H](CO)[C@@H](O)[C@@H]1O (stereo partly drawn) [GlcNAc, N-acetyl-D-glucosamine] | no effect | no effect | do not interfere | – | – |
| NC1C(OC2C(CO)OC(O)C(N)C2O)OC(CO)C(O)C1O (stereo not drawn) [chitosan dimer] | best effector | strongly affected | – | preferential CsnR ligand molecule | – |
| NC1C(OC2C(CO)OC(OC3C(CO)OC(OC4C(CO)OC(OC5C(CO)OC(O)C(N)C5O)C(N)C4O)C(N)C3O)C(N)C2O)OC(CO)C(O)C1O (stereo not drawn) [chitosan pentamer] | – | strongly affected | – | – | – |
| N[C@H]1C(O)O[C@H](CO)[C@H](O)[C@@H]1O (stereo partly drawn) [galactosamine] | no effect | – | do not interfere | – | – |
| O=C[C@H](O)[C@@H](O)[C@H](O)[C@H](O)CO [glucose] | no effect | no effect | do not interfere | – | – |
| csnA-M1: double-stranded oligonucleotide, csnA operator mutated at position +2, SEQ ID NO: 43 (DNA CCTCTTCTGGTAGGAAACTGTCCTATCAGT; double-stranded, further chemistry not given here) | – | – | – | – | 52.1 nM |
| csnA-M2: double-stranded oligonucleotide, csnA operator mutated at position +6, SEQ ID NO: 44 (DNA CCTCTTCTGGTAGGAAACTTTCCGATCAGT; double-stranded, further chemistry not given here) | – | – | – | – | 2.7 nM |
| csnA-MM: double-stranded oligonucleotide, csnA operator doubly mutated at +2 and +6, SEQ ID NO: 45 (CCTCTTCTGGTAGGAAACTGTCCGATCAGT; double-stranded, further chemistry not given here) | – | – | – | – | 105 nM |
| csnA-WT: double-stranded oligonucleotide, wild-type csnA operator, SEQ ID NO: 42 (CCTCTTCTGGTAGGAAACTTTCCTATCAGT; double-stranded, further chemistry not given here) | – | – | – | – | 1.3 nM |
